Entries after “also recorded” stand apart in the source; their conditions may differ.

Here are results for one compound from US9610294B2, “Methods and compositions for the treatment of fluid accumulation in and/or under the retina” (UNIVERSITE PARIS DESCARTES, priority 2010, dated 2017).

For assay [1], the system named is ENaC-α. Kind of assay: ENaC-α immunolocalization in retina of aldosterone-injected eyes. Format: in vivo, Lewis rats. The note with it: aldosterone-injected vs saline-injected eyes. How it is done:
(§1) Anesthesia of rats was induced by intramuscular injection of ketamine (100 mg/kg, Virbac, Carros, France) and chlorpromazine (0.65 mg/kg, LARGACTIL®, Sanofi Aventis, Livron sur Drome, France). Intravitreous injections were performed using microfine (300 μl) syringes with 30 G needles under topical anesthesia (tetracaine 1%, Aldrich, Lyon, France). Rat eyes were injected with 5 μl aldosterone diluted in 0.9% saline to obtain a concentration of 200 nM for injection, corresponding to a final concentration of 20 nM in the vitreous. Control rat eyes were injected with 5 μl saline. Twenty-four hrs after injection, rats were sacrificed. Eyes were then removed for retinal flat mounting, immunohistochemistry and morphological analysis respectively.
(§2) Eyes were snap frozen in Tissue-Tek OCT-compound (Bayer Diagnostics, Puteaux, France). Ten μm cryostat sections of rat eyes were fixed in 4% PFA for 15 min and permeabilized with 0.1% Triton X-I00 for 30 min. Unspecific binding sites were blocked with 5% normal goat serum for 1 hr. The sections were then incubated with primary antibodies for 1 hr at room temperature, washed in PBS, and further incubated with secondary antibodies for 1 hr. […] Images were taken using a fluorescence microscope (Olympus BX51, Rungis, France) equipped with a CCD camera (Olympus DP70). […]

The test system of assay [2] is AQP4. Kind of assay: AQP4 mRNA expression in RMG cells (Example 2). It is filed as cell-based. The text has this: We have performed several experiments.
For assay [3], the system named is Kir4.1. Kind of assay: Kir4.1 immunofluorescence in retina of aldosterone-injected eyes. Format: in vivo, Lewis rats. The settings on record: intravitreous aldosterone vs sham-injected. How it is done:
as §1, §2

For assay [4], the system named is aquaporin 1. Kind of assay: Aquaporin 1 expression after exposure to aldosterone. The settings on record: normal rat, 24 hours exposure, low aldosterone dose (1-10 nM).
Assay [5] has as its system AQP4. Kind of assay: AQP4 immunofluorescence and flat-mount confocal imaging in retina of aldosterone-injected eyes. It is filed as in vivo, Lewis rats. The settings on record: aldosterone-injected vs sham-injected eyes. As to the method: as §1
Eyes were fixed for 15 min in 4% paraformaldehyde (PFA, LADD, Inland Europe, Conflans-sur-Lanterne, France). After washing, retinas were isolated, cut by 4 orthogonal incisions and post-fixed with acetone 100% at −20° C. for 15 min. […]
Eyes were snap frozen in Tissue-Tek OCT-compound (Bayer Diagnostics, Puteaux, France). […] Images were taken using a fluorescence microscope (Olympus BX51, Rungis, France) equipped with a CCD camera (Olympus DP70). […]

The test system of assay [6] is retina. Kind of assay: Intravitreous aldosterone injection in rat eyes: retinal morphology and thickness. It is filed as in vivo, Lewis rats. As to the method: All experiments were performed in accordance with the European Communities Council Directive 86/609/EEC and approved by local ethical committees. Adult female Lewis rats (8-12 weeks old, Janvier, Le Genest-Saint-Isle, France) were used for preparation of RMG primary cultures, for retinal organotypic cultures and for in vivo experiments. Rats were sacrificed by carbon dioxide inhalation.
as §1
Enucleated eyes were fixed in 2.5% glutaraldehyde in cacodylate buffer (0.1 M, pH 7.4). After 30 min, eyes were dissected at the level of the limbus and lens removed. The posterior part was fixed for a further 5 hrs, dehydrated in a graded alcohol series (50%, 70%, 95% and 100%) and embedded in epoxy resin. Semi-thin sections (1 J.Im) were cut using an ultramicrotome (Reichert Ultracut E, Leica, Wetzlar, Germany), and stained with toluidine blue. The morphology was examined under a light microscope (DMRB, Leica). Retinal thickness was measured manually every 100 μm from the peripheral to the posterior pole. For analysis, the retina was divided into 3 zones: periphery, middle and posterior pole. In each zone, 3-4 individual measurements were performed in each section. Two to 6 sections were analyzed per rat (3 rats with aldosterone intravitreous injection and 3 with sham injection)

The mark [7] stands for this setting: single intravitreous injection, 20 nM, 24 hrs later.

For the compound `C[C@]12CCC(=O)C=C1CC[C@@H]1[C@@H]2[C@@H](O)C[C@]2(C=O)[C@@H](C(=O)CO)CC[C@@H]12` [aldosterone], the “ENaC-α expression intensity and number of expressing cells in retina” value in assay [1] is reported as “increased in the INL”. For the same compound, the “expression of the water channel AQP4” value in assay [2] was “up-regulates”. For the same compound, the “Kir4.1 localization in retina” value in assay [3] is “additional localization; also recorded: enhanced Kir4.1 immunofluorescence in the RMG apical microvilli in the OLM; also recorded: additional mislocalization”. Besides, the “expression of aquaporin 1” value in assay [4] is “reduces”. The “AQP4 localization / pattern of expression in retina” value in assay [5] is given as “additional localization; also recorded: extends all along RMG prolongations up to the OLM in their apical microvilli; also recorded: perivascular AQP4 fluorescence is more intense; also recorded: additional mislocalization”. In assay [6] (intravitreous injection, 20 nM final in the vitreous, 24 hrs), the “retinal swelling (increase compared to sham-injected eyes)” value stood at 24%. In assay [6] (setting [7]), the “Retinal thickness compared to sham-injected eyes” value was “significantly increased” and the “retinal morphological changes on semi-thin sections” value is listed as “fluid accumulation in the entire retina”.
